Measured values as given in patent publication US12459958B2, “Tricyclic compounds as HPK1 inhibitor and the use thereof” (BEIGENE, LTD., priority 2019, dated 2025).

Target: T1, HPK1 kinase (aa1-346, Life Technologies) (Homo sapiens, UniProt Q92918)
T1 construct: HPK1 kinase (aa1-346, Life Technologies); purchased Life Technologies
T1 sequence (Q92918 1-346): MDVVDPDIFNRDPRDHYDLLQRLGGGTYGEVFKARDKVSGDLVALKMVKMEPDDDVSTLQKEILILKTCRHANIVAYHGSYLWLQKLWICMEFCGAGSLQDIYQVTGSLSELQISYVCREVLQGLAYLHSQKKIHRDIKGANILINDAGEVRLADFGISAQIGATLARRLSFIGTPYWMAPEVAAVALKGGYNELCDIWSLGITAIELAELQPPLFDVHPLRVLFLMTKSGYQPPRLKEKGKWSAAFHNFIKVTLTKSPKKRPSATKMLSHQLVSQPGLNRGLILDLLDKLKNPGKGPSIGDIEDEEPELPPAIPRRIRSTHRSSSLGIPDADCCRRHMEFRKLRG
Assay: HPK Kinase Activity Assay at 1 mM ATP (TR-FRET)
Format: biochemical
Conditions: HPK1 kinase 40 nM, 0.5 μM STK1 substrate, read-out: Enzymatic activity IC50
Protocol: HPK Kinase Activity Assay at 1 mM ATP
Compounds disclosed herein were tested for inhibition of HPK1 kinase (aa1-346, Life Technologies) activity in assays based on the time-resolved fluorescence-resonance energy transfer (TR-FRET) methodology. The assays were carried out in 384-well low volume black plates in a reaction mixture containing HPK1 kinase (40 nM), 1 mM ATP, 0.5 μM STK1 substrate and 0-10 μM compound in buffer containing 50 mM HEPES, 0.01% BSA, 0.1 mM Orthovanadate, 10 mM MgCl2, 1 mM DTT, pH=7.0, 0.005% Tween-20. The kinase was incubated with the compounds disclosed herein or DMSO for 60 minutes at room temperature and the reaction was initiated by the addition of ATP and STK1 substrate. After reaction at room temperature for 120 minutes, an equal volume of stop/detection solution was added according to the manufacture's instruction (CisBio). The stop/detection solution contained STK Antibody-Cryptate and XL665-conjugated streptavidin in Detection Buffer. The TR-FRET signals (ratio of fluorescence emission at 665 nm over emission at 620 nm with excitation at 337 nm wavelength) were recorded on a PHERAstar FS plate reader (BMG Labtech). Phosphorylation of STK1 substrate led to the binding of STK Antibody-Cryptate to the biotinylated STK1 substrate, which places fluorescent donor (Eu^3+ crypate) in close proximity to the accepter (Streptavidin-XL665), thus resulting in a high degree of fluorescence resonance energy transfer. The inhibition of HPK1 in presence of increasing concentrations of compounds was calculated based on the ratio of fluorescence at 665 nm to that at 620 nm. The IC50 for each compound was derived from fitting the data to the four-parameter logistic equation by Graphpad Prism software.

Structure (SMILES): Cc1cc(-c2cnc3[nH]cc(-c4ccc(C(=O)N(C)C)cc4)c3n2)cc2c1N1CCN(C)C[C@@H]1CC2 [Example 7B, (S)-4-(2-(3,10-dimethyl-2,3,4,4a,5,6-hexahydro-1H-pyrazino[1,2-a]quinolin-8-yl)-5H-pyrrolo[2,3-b]pyrazin-7-yl)-N,N-dimethylbenzamide]
- IC50: 22 nM

Structure (SMILES): Cc1cc(-c2cnc3[nH]cc(-c4ccc(C(=O)N(C)C[C@H]5CCOC5)cc4)c3c2)cc2c1N1CCN(C)C[C@H]1CC2 [Example 5A, 4-(5-((R)-3,10-dimethyl-2,3,4,4a,5,6-hexahydro-1H-pyrazino[1,2-a]quinolin-8-yl)-1H-pyrrolo[2,3-b]pyridin-3-yl)-N-methyl-N—(((R)-tetrahydrofuran-3-yl)methyl)benzamide]
- IC50: 32 nM

Structure (SMILES): Cc1cc(-c2c[nH]c3ncc(-c4cc(C)c5c(c4)CC[C@@H]4CN(C)CCN54)nc23)ccc1C(=O)N(C)C[C@@H]1CCOC1 [Example 11A, 4-(2-((R)-3,10-dimethyl-2,3,4,4a,5,6-hexahydro-1H-pyrazino[1,2-a]quinolin-8-yl)-5H-pyrrolo[2,3-b]pyrazin-7-yl)-N,2-dimethyl-N—(((S)-tetrahydrofuran-3-yl)methyl)benzamide]
- IC50: 52 nM

Structure (SMILES): Cc1cc(-c2cnc3[nH]cc(-c4ccc(C(=O)N(C)C[C@@H]5CCOC5)cc4)c3n2)cc2c1N1CCN(C)C[C@H]1CC2 [Example 10A, 4-(2-((R)-3,10-dimethyl-2,3,4,4a,5,6-hexahydro-1H-pyrazino[1,2-a]quinolin-8-yl)-5H-pyrrolo[2,3-b]pyrazin-7-yl)-N-methyl-N—(((S)-tetrahydrofuran-3-yl)methyl)benzamide]
- IC50: 17 nM
